Reference: US20210100786A1, “Pharmaceutical Formulations” (CIPLA LIMITED, priority 2018, published 2021)

Assays:
Caco-2 cells [1] = system: Caco-2 cells
Caco-2 cells [2] = settings: cited from earlier work

In the case of `COc1nc2ccc(Br)cc2cc1[C@@H](c1ccccc1)[C@@](O)(CCN(C)C)c1cccc2ccccc12` [Bedaquiline], the absorption (Caco-2 cells [1]) is given as “increased”, the “efflux ratio (Papp B-A/Papp A-B)” value (Caco-2 cells [1]) is given as “decreasing the efflux ratio” and the P-gp substrate status (Caco-2 cells [2]) is given as “known P-gp substrate”.
